Laboratory results from US10253039B2, “Inhibitors of bacterial DNA gyrase with efficacy against gram-negative bacteria” (priority 2014, dated 2019).
In brackets after ≈: the same amount, converted by molar mass.

Experiments:
Type in all cases: cell-based
E. coli BW25113 = assay: MIC, microdilution in 96-well plates; details: Escherichia coli, BW25113, B: E. coli BW25113; read-out: MIC
Description: (§1) A microdilution method in 96-well plates was used and the MIC protocol established by the Clinical Laboratory Standards Institute was followed. From a growing subculture, a 1:10000 inoculum of each strain in Luria-Bertani media was prepared and aliquoted 100 μL in 4 columns of wells, except for the top row wells, which contained 200 μL of inoculum. A solution of gyramide C2 was aliquoted into 3 of the wells containing 200 μL and DMSO was added to the 4th well. The liquid in each of wells was mixed with a multi-channel pipet and 100 μL was transferred to the next well and mixed. The 2-fold dilution was continued down the 96-well plate until 100 μL was left, which was discarded. The plates were incubated at 37° C. with shaking for 16-18 hours. The MIC was determined as the lowest concentration that inhibited growth and had no turbidity by visual inspection.
(§2) Minimum inhibitory concentrations of various gyramide compounds against 20 strains of bacteria were determined using the procedure described above.

Edwardsiella tarda = assay: MIC, microdilution in 96-well plates; details: D: Edwardsiella tarda
Description: as §1, §2

E. coli JW5503 (deltolC) = assay: MIC, 20-strain panel; details: Escherichia coli, C: E. coli JW5503 (deltolC)
Description: as §1, §2

E. coli MG1655 = assay: MIC, 20-strain panel; details: Escherichia coli, MG1655, A: E. coli MG1655; read-out: MIC
Description: as §1, §2

[1] = tested on: Klebsiella pneumoniae subsp. pneumoniae; assay: MIC, 20-strain panel; details: E: Klebsiella pneumoniae subsp. pneumoniae
Description: as §1, §2

[2] = tested on: Salmonella enterica subsp. enterica typhimurium; assay: MIC, 20-strain panel; details: F: Salmonella enterica subsp. enterica Typhimurium
Description: as §1, §2

Shigella flexneri = assay: MIC, 20-strain panel; details: G: Shigella flexneri
Description: as §1, §2

[3] = tested on: Staphylococcus aureus subsp. aureus; assay: MIC, 20-strain panel; details: H: Staphylococcus aureus subsp. aureus, read-out: MIC
Description: as §1, §2

[4] = tested on: Staphylococcus epidermidis; assay: MIC, 20-strain panel
Description: as §1, §2

[5] = tested on: Staphylococcus saprophyticus subsp. saprophyticus; assay: MIC, 20-strain panel
Description: as §1, §2

Streptococcus agalactiae = assay: MIC, 20-strain panel
Description: as §1, §2

Streptococcus pyogenes = assay: MIC, 20-strain panel
Description: as §1, §2

Compound	MIC (E. coli BW25113)	MIC (Edwardsiella tarda)	MIC (E. coli JW5503 (deltolC))	MIC (E. coli MG1655)	MIC [1]	MIC [2]	MIC (Shigella flexneri)	MIC [3]	MIC [4]	MIC [5]	MIC (Streptococcus agalactiae)	MIC (Streptococcus pyogenes)
N#Cc1cccc(S(=O)(=O)N[C@@H]2CCN(Cc3ccc(-c4cncnc4)cc3)C2)c1 [Compound 22]	> 8 µg/mL	> 8 µg/mL	8 µg/mL (≈ 19.1 µM)	> 8 µg/mL	> 8 µg/mL	> 8 µg/mL	> 8 µg/mL	> 8 µg/mL	> 8 µg/mL	> 8 µg/mL	> 8 µg/mL	> 8 µg/mL
CC(C)(C)Oc1ccc(CN2CC[C@@H](NS(=O)(=O)c3cccc(C(F)(F)F)c3)C2)cc1 [Compound 23]	> 8 µg/mL	> 8 µg/mL	0.5 µg/mL (≈ 1.1 µM)	> 8 µg/mL	> 8 µg/mL	> 8 µg/mL	> 8 µg/mL	> 8 µg/mL	> 8 µg/mL	> 8 µg/mL	> 8 µg/mL	> 8 µg/mL
N#Cc1cccc(S(=O)(=O)N[C@@H]2CCN(Cc3ccc(-c4cccc(Cl)c4)cc3)C2)c1 [Compound 24]	> 8 µg/mL	> 8 µg/mL	4 µg/mL (≈ 8.85 µM)	> 8 µg/mL	> 8 µg/mL	> 8 µg/mL	> 8 µg/mL	> 8 µg/mL	> 8 µg/mL	> 8 µg/mL	> 8 µg/mL	> 8 µg/mL
N#Cc1cccc(S(=O)(=O)N[C@@H]2CCN(Cc3ccc(-c4cccs4)cc3)C2)c1 [Compound 25]	~8 µg/mL (≈ 18.9 µM)	> 8 µg/mL	0.25 µg/mL (≈ 0.59 µM)	~8 µg/mL (≈ 18.9 µM)	> 8 µg/mL	4 µg/mL (≈ 9.44 µM)	> 8 µg/mL	> 8 µg/mL	> 8 µg/mL	> 8 µg/mL	> 8 µg/mL	> 8 µg/mL
CC(C)(C)Oc1ccc(CN2CC[C@@H](NS(=O)(=O)c3cccc(OC(F)(F)F)c3)C2)cc1 [Compound 26]	> 8 µg/mL	> 8 µg/mL	0.5 µg/mL (≈ 1.06 µM)	> 8 µg/mL	> 8 µg/mL	> 8 µg/mL	> 8 µg/mL	> 8 µg/mL	> 8 µg/mL	> 8 µg/mL	> 8 µg/mL	> 8 µg/mL
O=S(=O)(N[C@@H]1CCN(Cc2ccc(-c3ccccc3)cc2)C1)c1cccc(C(F)(F)F)c1 [Compound 27]	> 8 µg/mL	> 8 µg/mL	0.5 µg/mL (≈ 1.09 µM)	> 8 µg/mL	> 8 µg/mL	4 µg/mL (≈ 8.69 µM)	> 8 µg/mL	> 8 µg/mL	8 µg/mL (≈ 17.4 µM)	> 8 µg/mL	> 8 µg/mL	8 µg/mL (≈ 17.4 µM)
O=S(=O)(N[C@@H]1CCN(Cc2ccc(-c3cccc(Cl)c3)cc2)C1)c1cccc(OC(F)(F)F)c1 [Compound 28]	> 8 µg/mL	> 8 µg/mL	> 8 µg/mL	> 8 µg/mL	> 8 µg/mL	> 8 µg/mL	> 8 µg/mL	> 8 µg/mL	2 µg/mL (≈ 3.91 µM)	> 8 µg/mL	> 8 µg/mL	~8 µg/mL (≈ 15.7 µM)
CC(C)Oc1ccc(CN2CC[C@@H](NS(=O)(=O)c3cc(S(=O)(=O)c4ccccc4)cs3)C2)cc1 [Compound 29]	> 8 µg/mL	> 8 µg/mL	> 8 µg/mL	> 8 µg/mL	> 8 µg/mL	> 8 µg/mL	> 8 µg/mL	> 8 µg/mL	> 8 µg/mL	> 8 µg/mL	> 8 µg/mL	> 8 µg/mL
Cc1c(CN2CC[C@@H](NS(=O)(=O)c3cccc(C#N)c3)C2)cnn1-c1ccccc1 [Compound 30]	> 8 µg/mL	> 8 µg/mL	> 8 µg/mL	> 8 µg/mL	> 8 µg/mL	> 8 µg/mL	> 8 µg/mL	> 8 µg/mL	> 8 µg/mL	> 8 µg/mL	> 8 µg/mL	> 8 µg/mL
CSc1ccc(CN2CC[C@@H](NS(=O)(=O)c3cccc(C#N)c3)C2)cc1 [Compound 31]	> 8 µg/mL	> 8 µg/mL	~8 µg/mL (≈ 20.6 µM)	> 8 µg/mL	> 8 µg/mL	> 8 µg/mL	> 8 µg/mL	> 8 µg/mL	> 8 µg/mL	> 8 µg/mL	> 8 µg/mL	> 8 µg/mL
